Target: T1, tankyrase-2 (Homo sapiens, UniProt Q9H2K2)
T1 sequence (Q9H2K2 1-1166): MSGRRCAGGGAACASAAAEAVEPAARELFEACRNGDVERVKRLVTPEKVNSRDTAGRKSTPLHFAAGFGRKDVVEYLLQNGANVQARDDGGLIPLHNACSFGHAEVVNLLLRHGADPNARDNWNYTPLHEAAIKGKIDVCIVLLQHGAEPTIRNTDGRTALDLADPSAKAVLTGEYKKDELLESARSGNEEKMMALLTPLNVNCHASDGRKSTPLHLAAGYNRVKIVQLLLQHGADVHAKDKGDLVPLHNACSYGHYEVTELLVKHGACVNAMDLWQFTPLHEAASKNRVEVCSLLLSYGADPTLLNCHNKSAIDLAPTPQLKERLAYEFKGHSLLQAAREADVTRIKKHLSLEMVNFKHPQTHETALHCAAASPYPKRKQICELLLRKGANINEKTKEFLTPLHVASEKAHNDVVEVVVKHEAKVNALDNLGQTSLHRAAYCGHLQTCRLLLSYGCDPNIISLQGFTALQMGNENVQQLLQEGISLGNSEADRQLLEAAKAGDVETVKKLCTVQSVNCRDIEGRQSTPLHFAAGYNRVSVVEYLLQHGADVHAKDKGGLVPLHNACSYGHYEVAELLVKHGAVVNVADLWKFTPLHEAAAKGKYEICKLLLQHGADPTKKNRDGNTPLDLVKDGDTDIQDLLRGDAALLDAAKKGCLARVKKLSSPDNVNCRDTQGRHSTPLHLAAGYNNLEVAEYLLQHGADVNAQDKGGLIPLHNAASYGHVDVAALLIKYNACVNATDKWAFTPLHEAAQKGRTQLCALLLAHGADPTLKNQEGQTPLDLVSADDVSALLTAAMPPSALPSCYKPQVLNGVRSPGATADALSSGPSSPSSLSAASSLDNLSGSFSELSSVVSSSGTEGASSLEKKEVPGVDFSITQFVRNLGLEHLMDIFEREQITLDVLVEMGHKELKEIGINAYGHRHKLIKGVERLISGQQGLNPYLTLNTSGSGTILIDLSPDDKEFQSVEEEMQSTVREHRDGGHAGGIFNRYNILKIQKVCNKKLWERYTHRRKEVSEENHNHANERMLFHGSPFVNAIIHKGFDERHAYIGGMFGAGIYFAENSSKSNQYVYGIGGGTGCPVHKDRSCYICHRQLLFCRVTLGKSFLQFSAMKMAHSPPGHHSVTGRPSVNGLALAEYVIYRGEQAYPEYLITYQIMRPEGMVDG
Assay: X-ray diffraction of tankyrase-2 crystal soaked with the compound
Format: binding
From the text: In the present invention, whether the tankyrase inhibitory compound is a nicotinamide-type compound or an adenosine-type compound can be determined by X-ray diffraction, more specifically a method in which a complex is crystallized from a mixed liquid of a tankyrase crystal prepared beforehand and the tankyrase inhibitory compound, and subjected to X-ray diffraction (soaking method), or a method in which a complex is crystallized from a mixed liquid having the tankyrase inhibitory compound coexisting with tankyrase in a state before the crystallization, and subjected to X-ray diffraction (co-crystallization). Whether the tankyrase inhibitory compound is a dual-type compound can be determined by preparing a crystal under any one of the above-described conditions, and performing X-ray diffraction.
X-ray diffraction data of a tankyrase-2 crystal soaked with the compound prepared in Compound Example 1 was measured with BL26B2 Beam Line in a large synchrotron radiation facility Spring-8 (Sayo-gun, Hyogo). The wavelength of the X-ray was 1.000 Å, and MX-225 (Rayonix, LLC) was used as a detector. The diffraction data was treated with XDS (Kabsch, 2010) and the CCP4 program (Winn et al., 2011).

CCOc1ccc(-c2n[nH]nc2[C@H]2NC(=O)c3cccc(C)c3N2)cc1 [Compound Example 101, (2R)-2-[5-(4-Ethoxyphenyl)-2H-1,2,3-triazol-4-yl]-8-methyl-2,3-dihydro-1H-quinazolin-4-one]
binding pocket type by X-ray diffraction: nicotinamide-type compound which binds to the nicotinamide binding pocket of tankyrase

— patent publication US20210060016A1, “ANTICANCER AGENT” (JAPANESE FOUNDATION FOR CANCER RESEARCH, priority 2017, published 2021)
